Data set [1] concerns the target T1, MurX (Mycobacterium tuberculosis, UniProt P9WMW7). It is filed as biochemical. The note with it: for MurX inhibition (%) 0.1 μM: inhibitor 0.1 μM; for MurX inhibition (%) 0.1 μM / MurX inhibition (%) 1 μM / MurX inhibition (%) 10 μM / MurX inhibition (%) 100 μM: 2 75 μM, neryl phosphate 6, P-60, 26 °C, 3h; for MurX inhibition (%) 1 μM: inhibitor 1 μM; for MurX inhibition (%) 10 μM: inhibitor 10 μM; for MurX inhibition (%) 100 μM: inhibitor 100 μM; for IC50: neryl phosphate assay, obtained three times, ± standard error of the mean.

Another data set has as its system MraY-MurG. The settings on record: no reference given; cited from earlier work.
Data set [2] deals with T1, MurX.
A short description of a further data set: Water-solubility. It is filed as physicochemical.

T1 sequence (P9WMW7 whole entry): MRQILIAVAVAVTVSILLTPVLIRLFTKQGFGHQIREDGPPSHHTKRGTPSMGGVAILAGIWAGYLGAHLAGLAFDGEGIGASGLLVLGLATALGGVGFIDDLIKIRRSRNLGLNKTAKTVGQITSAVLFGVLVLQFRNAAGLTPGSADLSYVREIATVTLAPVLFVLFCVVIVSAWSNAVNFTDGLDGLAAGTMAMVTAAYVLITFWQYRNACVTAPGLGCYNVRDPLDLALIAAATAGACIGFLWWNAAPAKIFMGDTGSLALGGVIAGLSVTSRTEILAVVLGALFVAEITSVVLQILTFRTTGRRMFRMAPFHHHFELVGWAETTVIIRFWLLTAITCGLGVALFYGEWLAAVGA

Regarding `CO[C@H]1[C@@H](O)[C@H](n2ccc(=O)[nH]c2=O)O[C@@H]1[C@@H](O[C@H]1OC(C(=O)N[C@H]2CCCCNC2=O)=C[C@H](O)[C@@H]1O)C(N)=O` [Capuramycin (7), Capuramycin], on MurX [1], the “MurX inhibition (%) 0.1 μM” value worked out at 36.6%, the “MurX inhibition (%) 1 μM” value worked out at 88.4%, the “MurX inhibition (%) 10 μM” value is 100% and the “MurX inhibition (%) 100 μM” value is 100%.
With `CN[C@H](CC(C)C)C(=O)N[C@H]1C(=O)N[C@@H](CC(N)=O)C(=O)N[C@H]2C(=O)N[C@H]3C(=O)N[C@H](C(=O)N[C@H](C(=O)O)c4cc(O)cc(O)c4-c4cc3ccc4O)[C@H](O)c3ccc(c(Cl)c3)Oc3cc2cc(c3O[C@@H]2O[C@H](CO)[C@@H](O)[C@H](O)[C@H]2O[C@H]2C[C@](C)(N)[C@H](O)[C@H](C)O2)Oc2ccc(cc2Cl)[C@H]1O` [Vancomycin], in the data set with MraY-MurG, the “activity in MraY-MurG coupled assays” value was “good activity”. On MurX [1] (even at 100 μM concentrations), the MurX inhibitory activity result is “did not inhibit MurX”. At MurX [1], the “MurX inhibition (%) 0.1 μM” value amounted to 0%, the “MurX inhibition (%) 1 μM” value amounted to 0%, the “MurX inhibition (%) 10 μM” value stood at 0% and the “MurX inhibition (%) 100 μM” value turned out to be 0%.
`CC(C)=CCC/C(C)=C\COP(=O)(O)O` [compound 6, neryl phosphate] gave an IC50 against MurX [1] of 0.152 µM.
For “N-glycolyl Park’s nucleotide-N^ε-dansylthiourea [compound 1]”, the Michaelis-Menten constant (Km) on MurX [2] is 18.1 µM.
“Park’s nucleotide-N^ε-dansylthiourea [compound 2]”: at MurX [2], the Michaelis-Menten constant (Km) was 17.9 µM and the “Vmax for neryl-lipid I synthesis by MurX” value was found to be 0.00269 µM/s.
As to Tunicamycin [Tunicamycin (9)], at MurX [1], the “MurX inhibition (%) 0.1 μM” value came out at 9%, the “MurX inhibition (%) 1 μM” value was 42%, the “MurX inhibition (%) 10 μM” value is 72% and the “MurX inhibition (%) 100 μM” value is listed as 72%. Also, at MurX [1], it took 2.73 ± 0.138 µM to reach half-maximal inhibition (IC50).
As to “neryl-lipid I-N^ε-dansylthiourea [compound 5]”, the water-solubility in the data set “Water-solubility” is over 50 µg/mL.

Broadly, the IC50 is the midpoint of a concentration-inhibition curve. Low values mean greater potency in that assay, high ones weaker potency in that assay. As a reminder, the Km is the substrate concentration at which the rate is half of its maximum.
